The IC50 is the concentration that inhibits the measured activity by half.

Where a name gives a salt, the structure may show the parent alone.

For this assay, the target named is T1, human PAR-2 (hPAR-2) receptor (Homo sapiens, UniProt P55085).
T1 construct: expressed in HEK-293 cells in an endogenous manner; endogenous in cells; host or cells: HEK-293
T1 sequence (P55085 26-397): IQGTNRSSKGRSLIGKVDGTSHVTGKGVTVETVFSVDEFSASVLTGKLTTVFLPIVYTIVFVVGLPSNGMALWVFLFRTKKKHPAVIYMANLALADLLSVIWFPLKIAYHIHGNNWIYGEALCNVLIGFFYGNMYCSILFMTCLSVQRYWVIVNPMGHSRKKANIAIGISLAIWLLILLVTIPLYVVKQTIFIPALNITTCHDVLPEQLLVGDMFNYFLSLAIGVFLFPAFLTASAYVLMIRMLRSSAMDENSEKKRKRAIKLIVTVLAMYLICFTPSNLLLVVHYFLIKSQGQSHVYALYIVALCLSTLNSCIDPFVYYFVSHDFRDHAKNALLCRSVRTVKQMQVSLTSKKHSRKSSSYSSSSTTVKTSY
As to the kind of experiment: In vitro human PAR-2 functional antagonist activity using calcium assays. In kind it is cell-based. To be noted: hPAR-2 endogenously expressed in HEK-293 cells; stimulated by 2-Furoyl-LIGRLO-NH2 peptide; Fluo4AM intracellular calcium, FLIPR Tetra. The method in brief:
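Antagonism was measured as reduced calcium response to 2-Furoyl-LIGRLO-NH2 (dosed at its 80%-of-maximum concentration), recorded for 5 min. This followed a 10 min compound pre-incubation on Fluo4AM-loaded HEK-293 cells expressing native hPAR-2. Signals were normalised to buffer and agonist-alone controls.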
In the case of `COc1ncc(N2CCN(C(=O)c3ccc4c(n3)C(C)(C)CN4c3ccc(Cl)c(F)c3)C(C)(C)C2)cc1C(=O)O` [Example 142, 5-(4-(1-(4-chloro-3-fluorophenyl)-3,3-dimethyl-2,3-dihydro-1H-pyrrolo[3,2-b]pyridine-5-carbonyl)-3,3-dimethylpiperazin-1-yl)-2-methoxynicotinic acid], the IC50 is < 500 nM. To `CC1(C)C(=O)NCCN1C(=O)c1ccc2c(n1)C1(CCCC1)C(=O)N2c1ccc(Cl)c(F)c1` [Example 2, 1′-(4-chloro-3-fluorophenyl)-5′-(2,2-dimethyl-3-oxopiperazine-1-carbonyl)spiro[cyclopentane-1,3′-pyrrolo[3,2-b]pyridin]-2′(1′H)-one] belongs 500 to 10000 nM; to `CN(C(=O)c1ccc2c(n1)C(C)(C)CN2c1ccc(Cl)c(F)c1)C1(C(N)=O)CC1` [Example 48, N-(1-carbamoylcyclopropyl)-1-(4-chloro-3-fluorophenyl)-N,3,3-trimethyl-2,3-dihydro-1H-pyrrolo[3,2-b]pyridine-5-carboxamide], 500 to 10000 nM; to `CC1(C)CN(c2ccc(Cl)c(F)c2)c2ccc(C(=O)N3CCN(c4cncc(C(=O)O)c4)CC3(C)C)nc21` [Example 151, 5-(4-(1-(4-chloro-3-fluorophenyl)-3,3-dimethyl-2,3-dihydro-1H-pyrrolo[3,2-b]pyridine-5-carbonyl)-3,3-dimethylpiperazin-1-yl)nicotinic acid], < 500 nM. To `CC1(C)CN(c2ccc(C(=O)N3CCN(c4cncc(C(=O)O)c4)CC3(C)C)c(F)c2)c2ccc(C(=O)N3CCN(c4cncc(C(=O)O)c4)CC3(C)C)nc21` [Example 152, 5-(4-(4-(5-(4-(5-carboxypyridin-3-yl)-2,2-dimethylpiperazine-1-carbonyl)-3,3-dimethyl-2,3-dihydro-1H-pyrrolo[3,2-b]pyridin-1-yl)-2-fluorobenzoyl)-3,3-dimethylpiperazin-1-yl)nicotinic acid] belongs > 10000 nM; to `CO[C@@H]1CCC2(C1)CN(c1ccc(Cl)c(F)c1)c1ccc(C(=O)N3CCN(c4cc(C)c(C(=O)O)c(C)n4)CC3(C)C)nc12` (stereo partly drawn) [Example 144, 6-(4-((3R)-1′-(4-chloro-3-fluorophenyl)-3-methoxy-1′,2′-dihydrospiro[cyclopentane-1,3′-pyrrolo[3,2-b]pyridine]-5′-carbonyl)-3,3-dimethylpiperazin-1-yl)-2,4-dimethylnicotinic acid], < 500 nM; to `Cc1cc(N2CCN(C(=O)c3cnc4c(n3)C(C)(C)CN4c3ccc(F)c(Cl)c3)C(C)(C)C2)nc(C)c1C(=O)O` [Example 191, 6-(4-(5-(3-chloro-4-fluorophenyl)-7,7-dimethyl-6,7-dihydro-5H-pyrrolo[2,3-b]pyrazine-2-carbonyl)-3,3-dimethylpiperazin-1-yl)-2,4-dimethylnicotinic acid], < 500 nM. To `CN1CNC(=O)C12CCN(C(=O)c1ccc3c(n1)C(C)(C)CN3c1ccc(Cl)c(F)c1)CC2` [Example 29, 8-(1-(4-chloro-3-fluorophenyl)-3,3-dimethyl-2,3-dihydro-1H-pyrrolo[3,2-b]pyridine-5-carbonyl)-1-methyl-1,3,8-triazaspiro[4.5]decan-4-one] belongs 500 to 10000 nM; to `CC1(C)CN(c2ccc(Cl)c(F)c2)c2ccc(C(=O)N3CC4(C3)CN(c3ccc(C(=O)O)cn3)C4)nc21` [Example 123, 6-(6-(1-(4-chloro-3-fluorophenyl)-3,3-dimethyl-2,3-dihydro-1H-pyrrolo[3,2-b]pyridine-5-carbonyl)-2,6-diazaspiro[3.3]heptan-2-yl)nicotinic acid], > 10000 nM.

Regarding `CO[C@H]1CN(C(=O)c2ccc3c(n2)C(C)(C)CN3c2ccc(Cl)c(F)c2)CC[C@H]1CC(=O)O` [Example 37, 2-((3R,4S)-1-(1-(4-chloro-3-fluorophenyl)-3,3-dimethyl-2,3-dihydro-1H-pyrrolo[3,2-b]pyridine-5-carbonyl)-3-methoxypiperidin-4-yl)acetic acid], the IC50 lay in the range of 500 to 10000 nM. On to `C[C@H](CC(=O)O)N(C)C(=O)c1ccc2c(n1)C(C)(C)CN2c1ccc(Cl)c(F)c1` [Example 47, (R)-3-(1-(4-chloro-3-fluorophenyl)-N,3,3-trimethyl-2,3-dihydro-1H-pyrrolo[3,2-b]pyridine-5-carboxamido)butanoic acid], for which the IC50 fell in the range of 500 to 10000 nM. To `CC1(C)CN(c2ccc(Cl)c(F)c2)c2ccc(C(=O)N3CCC(N4CCNC4=O)CC3)nc21` [Example 77, 1-(1-(1-(4-chloro-3-fluorophenyl)-3,3-dimethyl-2,3-dihydro-1H-pyrrolo[3,2-b]pyridine-5-carbonyl)piperidin-4-yl)imidazolidin-2-one] belongs 500 to 10000 nM; to `Cc1ccc(N2CC(C)(C)c3nc(C(=O)N4CCN(c5cc(C)c(C(=O)O)c(C)n5)CC4(C)C)cnc32)cc1F` [Example 185, 6-(4-(5-(3-fluoro-4-methylphenyl)-7,7-dimethyl-6,7-dihydro-5H-pyrrolo[2,3-b]pyrazine-2-carbonyl)-3,3-dimethylpiperazin-1-yl)-2,4-dimethylnicotinic acid], < 500 nM.

As for `CC(C(=O)O)c1ccc(N2CCN(C(=O)c3ccc4c(n3)C(C)(C)CN4c3ccc(Cl)c(F)c3)C(C)(C)C2)nc1` (stereo not drawn) [Example 160, 2-(6-(4-(1-(4-chloro-3-fluorophenyl)-3,3-dimethyl-2,3-dihydro-1H-pyrrolo[3,2-b]pyridine-5-carbonyl)-3,3-dimethylpiperazin-1-yl)pyridin-3-yl)propanoic acid], the IC50 is < 500 nM. To `Cc1cc(N2CCN(C(=O)c3cnc4c(n3)C3(CCC3)CN4c3ccc(Cl)c(F)c3)C(C)(C)C2)nc(C)c1C(=O)O` [Example 237, 6-(4-(5′-(4-chloro-3-fluorophenyl)-5′,6′-dihydrospiro[cyclobutane-1,7′-pyrrolo[2,3-b]pyrazine]-2′-carbonyl)-3,3-dimethylpiperazin-1-yl)-2,4-dimethylnicotinic acid] belongs < 500 nM; to `CC1(C)CN(c2ccc(Cl)c(F)c2)c2ccc(C(=O)N3CCC4(CC3)CNC(=O)C4)nc21` [Example 76, 8-(1-(4-chloro-3-fluorophenyl)-3,3-dimethyl-2,3-dihydro-1H-pyrrolo[3,2-b]pyridine-5-carbonyl)-2,8-diazaspiro[4.5]decan-3-one], 500 to 10000 nM. For `CN(c1ccc(C(=O)O)cn1)C1CCCN(C(=O)c2ccc3c(n2)C(C)(C)CN3c2ccc(Cl)c(F)c2)C1` (stereo not drawn) [Example 111, 6-((1-(1-(4-chloro-3-fluorophenyl)-3,3-dimethyl-2,3-dihydro-1H-pyrrolo[3,2-b]pyridine-5-carbonyl)piperidin-3-yl)(methyl)amino)nicotinic acid hydrochloride], the IC50 was 500 to 10000 nM. For `CCC1(C)CN(c2ccc(Cl)c(F)c2)c2ccc(C(=O)N3CCNC(=O)C3(C)C)nc21` (stereo not drawn) [Example 53, 4-(1-(4-chloro-3-fluorophenyl)-3-ethyl-3-methyl-2,3-dihydro-1H-pyrrolo[3,2-b]pyridine-5-carbonyl)-3,3-dimethylpiperazin-2-one], the IC50 is < 500 nM. To `CCC1(CC)CN(c2ccc(Cl)c(F)c2)c2ccc(C(=O)N3CCN(c4ccc(CC(=O)O)cn4)CC3(C)C)nc21` [Example 148, 2-(6-(4-(1-(4-chloro-3-fluorophenyl)-3,3-diethyl-2,3-dihydro-1H-pyrrolo[3,2-b]pyridine-5-carbonyl)-3,3-dimethylpiperazin-1-yl)pyridin-3-yl)acetic acid] belongs < 500 nM; to `CC1(C)C(=O)NCCN1C(=O)c1ccc2c(n1)C1(CCCC1)CN2c1ccccc1Cl` [Example 10, 4-(1′-(2-chlorophenyl)-1′,2′-dihydrospiro[cyclopentane-1,3′-pyrrolo[3,2-b]pyridine]-5′-carbonyl)-3,3-dimethylpiperazin-2-one], 500 to 10000 nM. To `CC1(C)CN(c2ccc(Cl)c(F)c2)c2ccc(C(=O)N3CCN(c4cc(C(=O)O)ccn4)CC3(C)C)nc21` [Example 105, 2-(4-(1-(4-chloro-3-fluorophenyl)-3,3-dimethyl-2,3-dihydro-1H-pyrrolo[3,2-b]pyridine-5-carbonyl)-3,3-dimethylpiperazin-1-yl)isonicotinic acid] belongs < 500 nM; to `CCN1CCN(C(=O)c2ccc3c(n2)C(C)(C)CN3c2ccc(Cl)c(F)c2)C(C)(C)C1` [Example 23, (1-(4-chloro-3-fluorophenyl)-3,3-dimethyl-2,3-dihydro-1H-pyrrolo[3,2-b]pyridin-5-yl)(4-ethyl-2,2-dimethylpiperazin-1-yl)methanone hydrochloride], 500 to 10000 nM; to `CO[C@@H]1CN(C(=O)c2ccc3c(n2)C(C)(C)CN3c2ccc(Cl)c(F)c2)CC[C@H]1CC(=O)O` [Example 92, 2-((3S,4S)-1-(1-(4-chloro-3-fluorophenyl)-3,3-dimethyl-2,3-dihydro-1H-pyrrolo[3,2-b]pyridine-5-carbonyl)-3-methoxypiperidin-4-yl)acetic acid], 500 to 10000 nM.

`Cc1cc(N2CCN(C(=O)c3ccc4c(n3)C3(CN4c4ccc(Cl)c(F)c4)CC(F)(F)C3)C(C)(C)C2)nc(C)c1C(=O)O` [Example 89, 6-(4-(1′-(4-chloro-3-fluorophenyl)-3,3-difluoro-1′,2′-dihydrospiro[cyclobutane-1,3′-pyrrolo[3,2-b]pyridine]-5′-carbonyl)-3,3-dimethylpiperazin-1-yl)-2,4-dimethylnicotinic acid]: the IC50 was < 500 nM.

These data come from patent US20250320224A1 (DOMAIN THERAPEUTICS, priority 2022, published 2025).
